Laboratory results published in US10307413B2, “Tetrahydro- and dihydro-isoquinoline PRMT5 inhibitors and uses thereof” (Epizyme, Inc., priority 2013, dated 2019).

Tests used:
PRMT5/MEP50 = PRMT5/MEP50 (Homo sapiens (Human), UniProt O14744); experiment: PRMT5 Biochemical Assay (PRMT5/MEP50 enzyme assay on peptide substrate, 3H-SAM Flashplate)
From the text: S-adenosylmethionine (SAM), S-adenosylhomocysteine (SAH), bicine, KCl, Tween20, dimethylsulfoxide (DMSO), bovine skin gelatin (BSG), and Tris(2-carboxyethyl)phosphine hydrochloride solution (TCEP) were purchased from Sigma-Aldrich at the highest level of purity possible. ^3H-SAM was purchase from American Radiolabeled Chemicals with a specific activity of 80 Ci/mmol. 384-well streptavidin Flashplates were purchased from PerkinElmer.
Peptide representative of human histone H4 residues 1-15 was synthesized with a C-terminal linker-affinity tag motif and a C-terminal amide cap by 21st Century Biochemicals.
The amplified genes were sublconed into pENTR/D/TEV (Life Technologies) and subsequently transferred by Gateway™ attL×attR recombination to pDEST8 baculovirus expression vector (Life Technologies).
Protein over-expression was accomplished by infecting exponentially growing Spodoptera frugiperda (SF9) cell culture at 1.2×10^6 cell/ml with a 5000 fold dilution of BIIC stock. Infections were carried out at 27° C. for 72 hours, harvested by centrifugation, and stored at −80° C. for purification.
Flag-PRMT5/6His-MeP50 was eluted with 300 mM Imidazole in the same buffer.
General Procedure for PRMT5/MEP50 Enzyme Assays on Peptide Substrates.
The assays were all performed in a buffer consisting of 20 mM Bicine (pH=7.6), 1 mM TCEP, 0.005% BSG, and 0.002% Tween20, prepared on the day of use. […] DMSO (1 ul) was added to Columns 11, 12, 23, 24, rows A-H for the maximum signal control and 1 ul of SAH, a known product and inhibitor of PRMT5/MEP50, was added to columns 11, 12, 23, 24, rows I-P for the minimum signal control. A cocktail (40 ul) containing the PRMT5/MEP50 enzyme and the peptide was added by Multidrop Combi (Thermo-Fisher). The compounds were allowed to incubate with PRMT5/MEP50 for 30 min at 25 degrees Celsius, then a cocktail (10 ul) containing ^3H-SAM was added to initiate the reaction (final volume=51 ul). […] The assays were stopped by the addition of non-radioactive SAM (10 ul) to a final concentration of 600 uM, which dilutes the ^3H-SAM to a level where its incorporation into the peptide substrate is no longer detectable. 50 ul of the reaction in the 384-well polypropylene plate was then transferred to a 384-well Flashplate and the biotinylated peptides were allowed to bind to the streptavidin surface for at least 1 hour before being washed three times with 0.1% Tween20 in a Biotek ELx405 plate washer. The plates were then read in a PerkinElmer TopCount plate reader to measure the quantity of ^3H-labeled peptide bound to the Flashplate surface, measured as disintegrations per minute (dpm) or alternatively, referred to as counts per minute (cpm).
[formula] [formula] Where dpm=disintegrations per minute, cmpd=signal in assay well, and min and max are the respective minimum and maximum signal controls.
[formula] [formula] Where top and bottom are the normally allowed to float, but may be fixed at 100 or 0 respectively in a 3-parameter fit. The Hill Coefficient normally allowed to float but may also be fixed at 1 in a 3-parameter fit. Y is the % inhibition and X is the compound concentration.

[1] = tested on: symmetric di-methyl arginine in Z-138 cells; experiment: Z-138 Methylation Assay (In Cell Western for symmetric di-methyl arginine and DNA content); type: cell-based; conditions: Homo sapiens, read-out: ICW EC50
In short: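 Z-138 cells (50,000 cells/mL) treated with compound 96 h at 37 °C, then fixed and stained for symmetric di-methyl arginine (800 nm) with DRAQ5 DNA counterstain (700 nm) on Licor Odyssey.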

Z-138 cell line = experiment: Z-138 Proliferation Assay (Cell Titer Glo, 5 days); type: cell-based; conditions: Homo sapiens, 120 h; Z-138 cells, 5 days; read-out: Proliferation EC50
In short: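 Z-138 cells exposed 5 days at 37 °C, 5% CO2 to nine-point 3-fold dilutions (final top 20 μM, 0.2% DMSO), in triplicate. Viability read as ATP by CellTiter-Glo luminescence; IC50 from 4-parameter fit of normalized dose-response curves.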

Chain of PRMT5/MEP50 (O14744 other isoform, or with tags, fused parts or gaps): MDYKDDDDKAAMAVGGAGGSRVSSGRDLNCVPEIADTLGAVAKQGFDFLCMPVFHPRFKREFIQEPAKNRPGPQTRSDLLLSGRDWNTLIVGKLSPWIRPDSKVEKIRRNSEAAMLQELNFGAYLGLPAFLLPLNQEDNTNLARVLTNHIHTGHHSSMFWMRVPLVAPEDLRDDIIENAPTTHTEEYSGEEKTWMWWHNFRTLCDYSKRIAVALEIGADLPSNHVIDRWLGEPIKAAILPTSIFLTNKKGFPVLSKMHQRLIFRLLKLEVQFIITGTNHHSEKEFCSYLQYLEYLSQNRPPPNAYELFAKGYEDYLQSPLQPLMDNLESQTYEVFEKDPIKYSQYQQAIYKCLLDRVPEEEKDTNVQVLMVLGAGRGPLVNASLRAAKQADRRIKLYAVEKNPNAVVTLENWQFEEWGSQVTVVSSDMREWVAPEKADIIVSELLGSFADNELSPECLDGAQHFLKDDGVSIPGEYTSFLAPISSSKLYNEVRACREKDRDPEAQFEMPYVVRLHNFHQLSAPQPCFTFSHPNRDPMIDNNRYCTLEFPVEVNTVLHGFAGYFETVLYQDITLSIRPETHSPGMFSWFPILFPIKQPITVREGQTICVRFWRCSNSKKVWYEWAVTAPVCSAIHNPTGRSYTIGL
Chain of PRMT5/MEP50 (Q9BQA1 other isoform, or with tags, fused parts or gaps partner): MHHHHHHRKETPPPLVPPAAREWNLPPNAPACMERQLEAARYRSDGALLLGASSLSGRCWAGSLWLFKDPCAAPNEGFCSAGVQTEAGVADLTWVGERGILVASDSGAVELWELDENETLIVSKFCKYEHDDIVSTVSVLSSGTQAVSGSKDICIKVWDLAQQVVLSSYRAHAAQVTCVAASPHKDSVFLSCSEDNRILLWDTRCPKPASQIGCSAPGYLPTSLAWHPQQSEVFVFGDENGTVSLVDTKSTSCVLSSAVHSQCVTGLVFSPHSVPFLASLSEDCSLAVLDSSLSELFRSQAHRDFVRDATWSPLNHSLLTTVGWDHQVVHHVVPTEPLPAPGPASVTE

Compound | IC50 (PRMT5/MEP50) | EC50 [1] | EC50 (Z-138 cell line)
O=C(NCC(O)CN1CCc2ccccc2C1)c1cccc(C2CCCN2)c1 (stereo not drawn) [Compound 42, N-(3-(3,4-dihydroisoquinolin-2(1H)-yl)-2-hydroxypropyl)-3-(pyrrolidin-2-yl)benzamide] | 101 to 1000 nM | 1000 to 10000 nM | > 20000 nM
CN1CCC(Nc2cccc(C(=O)NCC(O)CN3CCc4ccccc4C3)c2)C1 (stereo not drawn) [Compound 120] | < 100 nM | 101 to 1000 nM | 1000 to 10000 nM
CN1CCC(Nc2cc(C(=O)NC[C@H](O)CN3CCc4ccccc4C3)ncn2)CC1 [Compound 206] | < 100 nM | 101 to 1000 nM | 1000 to 10000 nM
O=C(NC[C@H](O)CN1CCc2ccccc2C1)c1cncc(OC2CCN(CC(F)(F)F)CC2)c1 [Compound 289] | < 100 nM | < 100 nM | 101 to 1000 nM
O=C(NC[C@H](O)CN1CCc2ccccc2C1)c1cccc2ccccc12 [Compound 295] | < 100 nM | < 100 nM | 1000 to 10000 nM
Cc1cnc(OC2CCOCC2)cc1C(=O)NC[C@H](O)CN1CCc2ccccc2C1 [Compound 309] | < 100 nM | < 100 nM | 1000 to 10000 nM
Cc1ncc(NC2CCNC2)cc1C(=O)NC[C@H](O)CN1CCc2ccccc2C1 (stereo partly drawn) [Compound 310] | < 100 nM | < 100 nM | 101 to 1000 nM
CN(C[C@H](O)CN1CCc2ccccc2C1)C(=O)c1cc(N(C)C2CCOCC2)ncn1 [Compound 313] | < 100 nM | < 100 nM | 1000 to 10000 nM
CN(C)C(=O)CNCCOc1cccc(C(=O)NCC(O)CN2CCc3ccccc3C2)c1 (stereo not drawn) [Compound 340] | 101 to 1000 nM | 101 to 1000 nM | > 20000 nM
Cc1cnc(NC2CNC2)cc1C(=O)NC[C@H](O)CN1CCc2ccccc2C1 [Compound 341] | < 100 nM | > 1000 nM | > 20000 nM
Cn1ccc(Nc2cc(C(=O)NC[C@H](O)CN3CCc4ccccc4C3)ccn2)n1 [Compound 342] | < 100 nM | < 100 nM | 1000 to 10000 nM
Cc1cc(C(=O)NC[C@H](O)CN2CCc3ccccc3C2)cc(NC2CCC2)n1 [Compound 348] | < 100 nM | < 100 nM | 101 to 1000 nM
O=C(NC[C@H](O)CN1CCc2ccccc2C1)c1ccnc(OC2CCC2)c1 [Compound 350] | < 100 nM | < 100 nM | 101 to 1000 nM
CN(C)CCNc1cc(C(=O)NC[C@H](O)CN2CCc3ccccc3C2)ncn1 [Compound 353] | < 100 nM | 101 to 1000 nM | 10000 to 50000 nM
CN(C)CCCNc1cc(C(=O)NC[C@H](O)CN2CCc3ccccc3C2)ncn1 [Compound 354] | < 100 nM | < 100 nM | 1000 to 10000 nM
O=C(NC[C@H](O)CN1CCc2ccccc2C1)c1cc(NC2CCC2)ncn1 [Compound 355] | < 100 nM | < 100 nM | < 100 nM
Cc1cnc(NC2CN(CC(F)(F)F)C2)cc1C(=O)NC[C@H](O)CN1CCc2ccccc2C1 [Compound 356] | 101 to 1000 nM | > 1000 nM | > 20000 nM
CN(C[C@H](O)CN1CCc2ccccc2C1)C(=O)c1ccnc(N(C)C2CCOCC2)c1 [Compound 358] | 1000 to 10000 nM | 101 to 1000 nM | > 20000 nM
CN(CCNCC(F)(F)F)c1cc(C(=O)NC[C@H](O)CN2CCc3ccccc3C2)ccn1 [Compound 359] | < 100 nM | 101 to 1000 nM | 1000 to 10000 nM
CNCCOc1ccc2cc(C(=O)NC[C@H](O)CN3CCc4ccccc4C3)ccc2c1 [Compound 361] | 101 to 1000 nM | < 100 nM | 1000 to 10000 nM
O=C(NC[C@H](O)CN1CCc2ccccc2C1)c1ccc(OCCCN2CCCCC2)cc1 [Compound 362] | 101 to 1000 nM | < 100 nM | 101 to 1000 nM

Second part, led by results:

IC50 (PRMT5/MEP50) | EC50 [1] | Compound | EC50 (Z-138 cell line)
101 to 1000 nM | 101 to 1000 nM | O=C(NC[C@H](O)CN1CCc2ccccc2C1)c1cncc(NC2CCN(CC(F)(F)F)C2)c1 (stereo partly drawn) [Compound 303] | 1000 to 10000 nM
< 100 nM | < 100 nM | CC(=O)N1CCC(Oc2cncc(C(=O)NC[C@H](O)CN3CCc4ccccc4C3)c2)CC1 [Compound 304] | 1000 to 10000 nM
< 100 nM | < 100 nM | O=C(NC[C@H](O)CN1CCc2ccccc2C1)c1ccc2[nH]nnc2c1 [Compound 305] | 101 to 1000 nM
< 100 nM | < 100 nM | O=C(NC[C@H](O)CN1CCc2ccccc2C1)c1ccnc(Nc2cccnc2)c1 [Compound 343] | < 100 nM
101 to 1000 nM | > 1000 nM | O=C(NC[C@H](O)CN1CCc2ccccc2C1)c1ccc2cccnc2c1O [Compound 344] | 1000 to 10000 nM
< 100 nM | < 100 nM | CN(C)CCCOc1ccc(C(=O)NC[C@H](O)CN2CCc3ccccc3C2)cc1 [Compound 345] | 101 to 1000 nM
< 100 nM | < 100 nM | CCN1CCC(Oc2ccc(C(=O)NC[C@H](O)CN3CCc4ccccc4C3)cc2)CC1 [Compound 346] | 101 to 1000 nM
< 100 nM | < 100 nM | O=C(NC[C@H](O)CN1CCc2ccccc2C1)c1ccc(OC2CCCNC2)cc1 (stereo partly drawn) [Compound 347] | 101 to 1000 nM
< 100 nM | < 100 nM | O=C(NC[C@H](O)CN1CCc2ccccc2C1)c1cc(NC2CCC2)nc(N2CCOCC2)c1 [Compound 349] | < 100 nM
< 100 nM | < 100 nM | O=C(NC[C@H](O)CN1CCc2ccccc2C1)c1cc(N[C@H]2CCOC2)ncn1 [Compound 351] | 101 to 1000 nM
101 to 1000 nM | < 100 nM | COCCNc1cc(C(=O)NC[C@H](O)CN2CCc3ccccc3C2)ncn1 [Compound 352] | 1000 to 10000 nM
101 to 1000 nM | < 100 nM | CN(C[C@H](O)CN1CCc2ccccc2C1)C(=O)c1ccnc(NC2CCOCC2)c1 [Compound 357] | 1000 to 10000 nM
101 to 1000 nM | < 100 nM | NCCOc1ccc2cc(C(=O)NC[C@H](O)CN3CCc4ccccc4C3)ccc2c1 [Compound 360] | 1000 to 10000 nM
< 100 nM | < 100 nM | O=C(NC[C@H](O)CN1CCc2ccccc2C1)c1ccc(OCCCN2CCOCC2)cc1 [Compound 363] | 1000 to 10000 nM
